Test results published in US20070142462A1, “Method of Treating Cancer” (The University of Utah, priority 2000, published 2007).

How the values were obtained:
Format in all cases: cell-based, human
GRO-α = GRO-α ELISA in culture medium; settings: M1619; dicumarol 24 hours
Protocol: To study the impact of inhibiting NF-κB activation with antioxidants, cellular expression of the autocrine growth factor GRO-α was studied in near confluent monolayers of M1619 cells grown in 24-well plates. Cells were either treated with fresh complete medium or fresh medium containing 25 μM ebselen. After 24 hours, supernatants were harvested, microcentrifuged to remove cellular debris and frozen at −20° C. until GRO-α measurement as outlined below.
Measurement of GRO-α Expression. GRO-α was measured in culture medium from untreated and ebselen treated cells using a commercial ELISA purchased from R&D Systems, Minneapolis, Minn. This assay could not be used to detect GRO-α production by catalase treated cells because of interference in the peroxidase-based ELISA by catalase in the cell supernatant.
[…]. After 24 hours, GRO-α concentration was measured in media.

p65 component of NF-κB = test: Immunohistochemical localization of p65 in M1619 cells; settings: 24 hours, catalase 3,000 U/ml, apocynin 150 μg/ml, dicumarol 250 μM
Protocol: The effect of antioxidants on nuclear activation of NF-κB was studied by incubating near confluent (70%) cell cultures with antioxidant treatments for 1-48 hours. Nuclear protein was harvested, and EMSAs were performed using DNA consensus binding sequences, or nuclear translocation of the p65 component of NF-κB was studied by immunoperoxidase staining, as outlined below.
Immunohistochemical Localization of NF-κB. Cells grown on sterile coverslips and treated with catalase 3,000 U/ml, apocynin 150 μg/ml, or DPBS or DMSO vehicles for 24 h were fixed for 20 min on ice with 4% paraformaldehyde in DPBS with protease inhibitors, PI [Sigma protease inhibitor cocktail, 10 μl/ml, containing 4-(2-aminoethyl)benzensulfonyl fluoride (AEBSF), pepstatin A, trans-epoxysuccinyl-L-leucylamindo-(guanidino)butane (E-64), bestatin, leupeptin and aprotinin]. Cells were permeabilized by treating for 2 min with 0.1% NP-40 in DPBS/PI, washed once with cold DPBS and fixed as before for 10 min. Coverslips were incubated in 3% hydrogen peroxide for 30 min to suppress any remaining peroxidase, and washed three times in cold DPBS. The permeabilized and fixed cells were blocked for 2 hours with 2% BSA in DPBS on ice and incubated overnight at 4° C. with 1 μg/ml of anti-p65 antibody (Santa Cruz) diluted in 0.1% BSA/DPBS. Unbound anti-p65 was washed away with 2% BSA/DPBS and bound antibody was stained by incubation with biotinylated goat anti-rabbit immunoglobulin diluted 1:50 in 0.1% BSA/DPBS for 45 min on ice. Excess secondary antibody was washed away by 3 washes with 2% BSA/DPBS on ice. After washing, the cells were incubated with a streptavidin-biotin-peroxidase complex at room temperature for 1 hr, washed again, and incubated in 0.03% wt/vol 3-3′diaminobenzidine with 0.003% vol/vol hydrogen peroxide until a brown reaction product could be seen. Cells were then counterstained with eosin and mounted on glass slides before viewing under light microscopy. […]

M1619 cells = test: Ferricytochrome c reduction (O2− generation) by M1619 cells; settings: 160 μM ferricytochrome c; capsaicin 100 μM; dicumarol 250 μM pre-treatment 60 min; other inhibitors as
Protocol: Measurement of Reactive Oxygen Species. Superoxide (O2^−) generation was measured by the technique of superoxide dismutase (SOD) inhibitable reduction of ferricytochrome c, employing a modification allowing absorbance reading with an automatic enzyme immunoassay reader. See Friovich, I. in Handbook of Methods for Oxygen Radical Research (Greenwald, R. A., ed.), pp 121-122, CRC Press, Boca Raton, Fla., 1985; Pick, E. et al. J. Immunol. Methods 46:211-226 (1981). Confluent cells grown on 24-well plates were washed with DPBS, and incubated in 5% CO2/air at 37° C. with 160 μM ferricytochrome c in total volume of 550 μl of sodium bicarbonate-containing Krebs-Heinseleit buffer, or Hanks Balanced Salt Solution (HBSS), with and without copper-zinc SOD (1,000 units/ml). See Nozik-Grayck, et al., Am J. Physiol. 273 (17):L296-L304 (1997). The absorbance of each well was measured at 550 nm initially and 3-24 hours later using an ELx800 UV automated microplate reader (Biotek Instruments, Highland Park, Vt.). Monolayers were then washed with DPBS, and cell protein was measured using the BCA protein assay (Pierce). O2^− generation, normalized to cell protein, was computed from the Beer-Lambert relationship, as the quotient of SOD-inhibitable increase absorbance over time divided by the difference between the molar extinction coefficients for ferricytochrome c and ferrocytochrome c (ΔEM=2.1×10^4 M^−1 cm^−1). See Bashford, in Spectrophotometry & Spectrofluorimetry. A Practical Approach (Harris, D. A., and Bashford, C. L., eds) pp. 1-22, IRL Press, Washington, D.C., 1987; Friovich, I. in Handbook of Methods for Oxygen Radical Research (Greenwald, R. A., ed) pp 121-122, CRC Press, Boca Raton, Fla., 1985. […].
A. Capsaicin inhibits ferricytochrome c reduction. M1619 cells grown on 24-well plates were washed with DPBS, and incubated in 5% CO2/air at 37° C. with 160 μM ferricytochrome c in total volume of 550 μl of HBSS with or without the quinone analog capsaicin (100 μM final concentration) added in 5 μl/ml of ethanol. The absorbance of each well was measured at 550 nm initially and 3 hours later using an ELx800 UV automated microplate reader (Biotek Instruments, Highland Park, Vt.). The results are illustrated in FIG. 8A.
. […]. The results are illustrated in FIG. 9A.

SMILES: O=c1oc2ccccc2c(O)c1Cc1c(O)c2ccccc2oc1=O [Dicumarol, 3,3′-methylenebis[4-hydroxy-2H-1-benzopyran-2-one]]
- GRO-α protein expression (GRO-α): dramatic reduction
- anti-p65 staining in nuclei (nuclear translocation of NF-κB) (p65 component of NF-κB): little staining in nuclei
- ferricytochrome c reduction by M1619 cells (M1619 cells): significantly decreased
